Where no end group is shown, it is not given here.
Test system: grass pollen allergic donor derived TCL-03 lines
Experiment: Extended cross-reactivity study, proliferation on TCL03 DK1+DK2 (Study XR2), scoring
Format: cell-based, human
Set-up: Cross-reactivity score: scale not given here
Settings: for cross-reactivity of homologue: 2 μg/ml, 20 donors
[1] = homologue of peptide 211 (Phl p 1), Table 44
[2] = homologue of peptide 205 (Phl p 1), Table 41

Row | Substance | Cross-reactivity score [1] | cross-reactivity of homologue | Cross-reactivity score [2] | further results
1 | STGGAYQSYKFIPALEAAVK-OH [compound 406] |  |  |  | Cross-reactivity score (homologue of peptide 238 (Phl p 5), Table 48): 4
2 | TDMNYEQIAAYHFDLAGTAF-OH [compound 370] |  |  |  | Cross-reactivity score (homologue of peptide 204 (Phl p 1), Table 40): 2
3 | VDKIDAAYKIAATAANAAPA-OH [compound 399] |  |  |  | Cross-reactivity score (homologue of peptide 235 (Phl p 5), Table 53): 5
4 | VDKIDAAYKIAATAANAAPAN-OH [compound 417] |  |  |  | Cross-reactivity score (homologue of peptide 286 (Phl p 5), Table 52): 7
5 | WGAIWRIDPPKPLKGPFTIR-OH [compound 391] | 0.5 |  |  | 
6 | WGAIWRKDSDKPIKFPVTVQ-OH [compound 396] | 0.5 |  |  | 
7 | WGAIWRMDTPKALVPPFSIR-OH [compound 394] | 1 |  |  | 
8 | WGAIWRVDTPDKLTGPFTVR-OH [compound 392] | 5 | considerable cross-reactivity |  | 
9 | WGAVWRIDTPDKLTGPFTVR-OH [compound 393] | 4 | considerable cross-reactivity |  | 
10 | WGSIWRVDTPDKLTGPFTVR-OH [compound 395] | 3 | considerable cross-reactivity |  | 
11 | YGIFDLEFRRVRSKYQGGQK-OH [compound 384] |  |  |  | Cross-reactivity score (homologue of peptide 207 (Phl p 1), Table 43): 0.5
12 | YHFDLAGTAFGAMAKKGEEE-OH [compound 375] |  | very high reactivity | 7 | 
13 | YHFDLSGHAFGSMAKKGEEE-OH [compound 373] |  | very high reactivity | 6 | 
14 | YHFDLSGHAFGSMAKKGEEQ-OH [compound 372] |  | very high reactivity | 7 | 
15 | YHFDLSGKAFGAMAKKGEED-OH [compound 371] |  |  | 2 | 
16 | YHFDLSGKAFGAMAKKGEEQ-OH [compound 374] |  |  | 3 | 

From patent publication US20180207228A1, “PEPTIDE COMBINATIONS AND USES THEREOF FOR TREATING GRASS ALLERGY” (ALK-Abelló A/S, priority 2015, published 2018)
